Source: ChEMBL document CHEMBL1142498 (J Med Chem, 2008)
pIC50, pKi: −log10 of the molar value.

Legend:
[1] = target: Sodium-dependent serotonin transporter (Homo sapiens, UniProt P31645); type: cell-based, JAR
Description: Inhibition of 5-HT transporter-mediated [3H]5HT uptake in human Jar cells

Rattus norvegicus = species on record: Rattus norvegicus; assay: Displacement of [3H]prazosin from alpha1 adrenergic receptor in Sprague-Dawley rat cortical membrane at 1 uM
[2] = target: T1, 5-hydroxytryptamine receptor 1A (Homo sapiens, UniProt P08908)
T1 sequence (P08908 whole entry): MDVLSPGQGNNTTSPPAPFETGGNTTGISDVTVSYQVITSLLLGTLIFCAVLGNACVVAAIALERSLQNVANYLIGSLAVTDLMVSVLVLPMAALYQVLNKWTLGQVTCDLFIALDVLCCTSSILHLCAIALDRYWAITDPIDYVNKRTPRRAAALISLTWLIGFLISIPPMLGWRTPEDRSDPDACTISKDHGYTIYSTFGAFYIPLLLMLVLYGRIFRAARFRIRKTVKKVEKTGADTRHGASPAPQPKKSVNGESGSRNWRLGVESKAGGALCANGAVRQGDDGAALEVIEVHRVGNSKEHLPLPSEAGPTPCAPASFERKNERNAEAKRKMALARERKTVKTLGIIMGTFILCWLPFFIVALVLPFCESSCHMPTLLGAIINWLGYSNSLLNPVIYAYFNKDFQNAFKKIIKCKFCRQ
Description: Activity at human cloned 5HT1A receptor expressed in CHO cells assessed as blockade of 5-HT-stimulated [35S]GTPgammaS binding

[3] = target: Sodium-dependent serotonin transporter (Rattus norvegicus, UniProt P31652)
Sodium-dependent serotonin transporter (Rattus norvegicus, UniProt P31652), sequence (P31652 whole entry): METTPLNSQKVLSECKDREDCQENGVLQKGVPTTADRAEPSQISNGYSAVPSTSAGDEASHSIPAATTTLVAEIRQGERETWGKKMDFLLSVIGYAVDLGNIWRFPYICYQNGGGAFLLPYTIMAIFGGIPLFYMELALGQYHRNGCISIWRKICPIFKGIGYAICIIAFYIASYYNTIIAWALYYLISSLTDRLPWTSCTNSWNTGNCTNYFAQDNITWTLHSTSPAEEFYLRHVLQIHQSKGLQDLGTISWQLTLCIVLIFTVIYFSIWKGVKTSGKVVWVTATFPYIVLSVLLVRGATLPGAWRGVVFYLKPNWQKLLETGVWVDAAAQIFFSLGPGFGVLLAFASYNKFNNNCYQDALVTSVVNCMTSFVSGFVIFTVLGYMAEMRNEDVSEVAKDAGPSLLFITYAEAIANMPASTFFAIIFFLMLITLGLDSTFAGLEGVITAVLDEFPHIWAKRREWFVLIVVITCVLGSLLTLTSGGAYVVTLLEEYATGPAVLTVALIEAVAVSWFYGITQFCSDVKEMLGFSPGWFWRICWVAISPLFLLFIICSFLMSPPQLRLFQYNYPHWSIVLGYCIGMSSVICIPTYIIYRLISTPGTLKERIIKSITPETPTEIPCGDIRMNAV
Description: Displacement of [3H]paroxetine from serotonin transporter in Sprague-Dawley rat frontal cortical membrane

Sodium-dependent serotonin transporter (Homo sapiens, UniProt P31645), sequence (P31645 whole entry): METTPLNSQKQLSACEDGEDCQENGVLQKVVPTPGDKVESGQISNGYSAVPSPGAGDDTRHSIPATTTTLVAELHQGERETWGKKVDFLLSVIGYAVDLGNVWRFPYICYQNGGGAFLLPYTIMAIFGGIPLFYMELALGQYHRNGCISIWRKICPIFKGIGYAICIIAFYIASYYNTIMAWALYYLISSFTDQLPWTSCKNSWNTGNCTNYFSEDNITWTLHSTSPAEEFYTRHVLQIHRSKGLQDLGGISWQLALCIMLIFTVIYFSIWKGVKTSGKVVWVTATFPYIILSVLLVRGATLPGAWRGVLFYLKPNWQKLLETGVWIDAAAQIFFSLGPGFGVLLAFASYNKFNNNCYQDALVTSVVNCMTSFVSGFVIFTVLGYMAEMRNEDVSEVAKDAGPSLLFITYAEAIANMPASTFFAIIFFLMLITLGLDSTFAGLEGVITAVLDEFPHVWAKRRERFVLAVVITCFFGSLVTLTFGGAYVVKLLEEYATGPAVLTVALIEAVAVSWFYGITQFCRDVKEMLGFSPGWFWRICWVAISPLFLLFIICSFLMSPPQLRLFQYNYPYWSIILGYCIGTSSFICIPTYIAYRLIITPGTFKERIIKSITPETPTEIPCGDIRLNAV

In the case of CCCN(CC1CCc2[nH]c3ccc(F)cc3c2C1)[C@H]1COc2c(F)ccc(C(N)=O)c2C1 (single isomer, unassigned; (+)) [listing 1 of 2 here], the pIC50 ([1]; jar) was under 6.00.

For NC(=O)c1ccc(F)c2c1CC(N(CCCc1c[nH]c3c(Cl)cccc13)C1CCC1)CO2 (centres undefined), the pIC50 [1] was under 6.00, the Activity (Rattus norvegicus) was 29% and the pIC50 [2] was under 6.00.

With COc1cccc2c1CC(N(CCCc1c[nH]c3ccc(F)cc13)C1CCC1)CO2 (centres undefined) the Activity (Rattus norvegicus) was 15% and the pIC50 [2] was under 5.70.

For O=C(NC1CC1)c1ccc(F)c2c1CC(N(CCCc1c[nH]c3ccc(F)cc13)C1CCC1)CO2 (centres undefined), the pIC50 [1] was 7.16, the Activity (Rattus norvegicus) was 12% and the pKi [3] was 8.09.

Compound CNC(=O)c1ccc(F)c2c1CC(N(CCCc1c[nH]c3ccc(F)cc13)C1CCC1)CO2 (centres undefined) has a pIC50 [1] of 7.82, an Activity (Rattus norvegicus) of 27% and a pKi [3] of 8.08.

In the case of CCCN(CCCc1c[nH]c2ccc(F)cc12)[C@@H]1COc2c(F)ccc(OC)c2C1, the pIC50 [1] was 6.34.

Work on NC(=O)c1ccc(F)c2c1C[C@@H](NCC1CCc3[nH]c4ccc(F)cc4c3C1)CO2 (stereo in doubt; 57a) [listing 1 of 2 here] yielded an Activity (Rattus norvegicus) of 23%.

Work on NC(=O)c1cccc2c1CC(N(CCCc1c[nH]c3ccc(F)cc13)C1CCC1)CO2 (single isomer, unassigned; (-)) [listing 1 of 2 here] yielded a pIC50 [1] of 6.96, a pKi [3] of 8.23 and a pIC50 [2] of 7.18.

With NC(=O)c1ccc(F)c2c1CC(N(CCCCn1ccc3ccc(F)cc31)C1CCC1)CO2 (centres undefined) the pIC50 [1] was under 6.00 and the Activity (Rattus norvegicus) was 7%.

For CN(C)C(=O)c1ccc(F)c2c1CC(N(CCCc1c[nH]c3ccc(F)cc13)C1CCC1)CO2 (centres undefined), the pIC50 [1] was 6.66 and the pIC50 [2] was under 5.70.

Work on NC(=O)c1ccc(Cl)c2c1CC(N(CCCc1c[nH]c3ccc(F)cc13)C1CCC1)CO2 (single isomer, unassigned; (-)) yielded an Activity (Rattus norvegicus) of 22%.

Compound NC(=O)c1cccc2c1CC(N(CCCc1c[nH]c3ccc(F)cc13)C1CCC1)CO2 (single isomer, unassigned; (-)) [listing 2 of 2 here] has an Activity (Rattus norvegicus) of 10%.

With NC(=O)c1ccc(F)c2c1CC(N(CCCCn1ccc3c(F)cccc31)C1CCC1)CO2 (centres undefined) the pIC50 [1] was 6.99 and the Activity (Rattus norvegicus) was 5%.

CC(CCc1c[nH]c2ccc(F)cc12)N(CC1CC1)C1COc2c(F)ccc(C(N)=O)c2C1 (single isomer, unassigned; (-)) [listing 1 of 2 here] gave an Activity (Rattus norvegicus) of 15%.

NC(=O)c1ccc(F)c2c1CC(N(CCCCn1ccc3cccc(F)c31)C1CCC1)CO2 (centres undefined) was tested, and the pIC50 [1] was under 6.00, the Activity (Rattus norvegicus) was 14% and the pIC50 [2] was under 6.00.

Compound NC(=O)c1ccc(F)c2c1CC(N(CCCc1c[nH]c3cc(F)ccc13)C1CCC1)CO2 (centres undefined) has a pIC50 [1] of 6.05 and an Activity (Rattus norvegicus) of 30%.

NC(=O)c1ccc(F)c2c1CC(N(CCCCn1ccc3c(F)cccc31)CC1CC1)CO2 (centres undefined) showed a pIC50 [1] of under 6.00, an Activity (Rattus norvegicus) of 18% and a pIC50 [2] of under 6.00.

NC(=O)c1ccc(F)c2c1CC(N(CCCCn1ccc3cccc(F)c31)CC1CC1)CO2 (centres undefined) gave a pIC50 [1] of 6.86 and an Activity (Rattus norvegicus) of 27%.

CC(CCc1c[nH]c2ccc(F)cc12)N(CC1CC1)C1COc2c(F)ccc(C(N)=O)c2C1 (single isomer, unassigned; (-)) [listing 2 of 2 here] was tested, and the pIC50 [1] was 6.71 and the pIC50 [2] was 6.48.

In the case of CCCN(CC1CCc2[nH]c3ccc(F)cc3c2C1)[C@H]1COc2c(F)ccc(C(N)=O)c2C1 (single isomer, unassigned; (+)) [listing 2 of 2 here], the Activity (Rattus norvegicus) was 15%.

CCCN(CCCCn1ccc2ccc(F)cc21)C1COc2c(F)ccc(C(N)=O)c2C1 (centres undefined) was tested, and the pIC50 [1] was 6.11 and the Activity (Rattus norvegicus) was 15%.

CC(CCc1c[nH]c2ccc(F)cc12)N(CC1CC1)C1COc2c(F)ccc(C(N)=O)c2C1 (single isomer, unassigned; (+)) [listing 1 of 2 here] showed an Activity (Rattus norvegicus) of 7%.

NC(=O)c1ccc(F)c2c1C[C@@H](NCC1CCc3[nH]c4ccc(F)cc4c3C1)CO2 (stereo in doubt; 57a) [listing 2 of 2 here] showed a pIC50 [1] of 6.54.

With CCCN(CCCCn1ccc2c(F)cccc21)C1COc2c(F)ccc(C(N)=O)c2C1 (centres undefined) the pIC50 [1] was under 6.00 and the Activity (Rattus norvegicus) was 23%.

With NC(=O)c1ccc(F)c2c1C[C@@H](NCC1CCc3[nH]c4ccc(F)cc4c3C1)CO2 (stereo in doubt; 57b) the pIC50 [1] was under 6.00.

In the case of CCCNC(=O)c1ccc(F)c2c1CC(N(CCCc1c[nH]c3ccc(F)cc13)C1CCC1)CO2 (centres undefined), the pIC50 [1] was 7.49, the Activity (Rattus norvegicus) was 21% and the pKi [3] was 8.10.

Work on NC(=O)c1ccc(F)c2c1C[C@@H](N(CC1CC1)CC1CCc3[nH]c4ccc(F)cc4c3C1)CO2 (stereo in doubt; 59b) [listing 1 of 2 here] yielded a pIC50 ([1]; jar) of under 6.00.

CCCN(CCCc1c[nH]c2ccc(F)cc12)C1COc2c(F)ccc(C(=O)NC)c2C1 (centres undefined) was tested, and the pIC50 [1] was 7.61 and the pKi [3] was 8.62.

NC(=O)c1ccc(F)c2c1CC(N(CCCc1c[nH]c3ccc(Cl)cc13)C1CCC1)CO2 (centres undefined) was tested, and the pIC50 [1] was 6.21 and the Activity (Rattus norvegicus) was 20%.

NC(=O)c1ccc(F)c2c1CC(N(CCCc1c[nH]c3c(F)cc(F)cc13)C1CCC1)CO2 (single isomer, unassigned; (+)) [listing 1 of 2 here] was tested, and the Activity (Rattus norvegicus) was 5%.

NC(=O)c1ccc(F)c2c1C[C@@H](N(CC1CC1)CC1CCc3[nH]c4ccc(F)cc4c3C1)CO2 (stereo in doubt; 59a) [listing 1 of 2 here] gave a pIC50 [1] of under 6.00 and a pIC50 [2] of under 6.00.

COc1cccc2c1C[C@@H](N(CCCc1c[nH]c3ccc(F)cc13)C1CCC1)CO2 showed an Activity (Rattus norvegicus) of 15%.

In the case of COc1ccc2[nH]cc(CCCN(C3CCC3)C3COc4c(F)ccc(C(N)=O)c4C3)c2c1 (centres undefined), the pIC50 [1] was 6.08, the pKi [3] was under 6.00 and the pIC50 [2] was 6.38.

CCCN(CC1CCc2[nH]c3ccc(F)cc3c2C1)[C@H]1COc2c(F)ccc(C(N)=O)c2C1 (stereo in doubt; 58a) [listing 1 of 2 here] was tested, and the Activity (Rattus norvegicus) was 5%.

Work on NC(=O)c1cccc2c1CC(N(CCCc1c[nH]c3ccc(F)cc13)C1CCC1)CO2 (stereo in doubt; 35e) yielded a pIC50 [1] of 6.94 and a pKi [3] of 8.02.

For N#Cc1ccc2[nH]cc(CCCN(C3CCC3)C3COc4c(F)ccc(C(N)=O)c4C3)c2c1 (single isomer, unassigned; (+)), the Activity (Rattus norvegicus) was 27%.

CCNC(=O)c1ccc(F)c2c1CC(N(CCCc1c[nH]c3ccc(F)cc13)C1CCC1)CO2 (centres undefined) showed a pIC50 [1] of 7.55, an Activity (Rattus norvegicus) of 12% and a pKi [3] of 8.02. It also gave a pIC50 [2] of under 6.00.

For NC(=O)c1ccc(Cl)c2c1CC(N(CCCc1c[nH]c3ccc(F)cc13)C1CCC1)CO2 (stereo in doubt; 35d), the pIC50 [1] was 7.25, the pKi [3] was 8.43 and the pIC50 [2] was under 6.00.

NC(=O)c1cccc2c1CC(N(CCCc1c[nH]c3ccc(F)cc13)C1CCC1)CO2 (stereo in doubt; (+)-35e) [listing 1 of 2 here] gave an Activity (Rattus norvegicus) of 6%.

In the case of CCCN(CCCCn1ccc2cc(F)ccc21)C1COc2c(F)ccc(C(N)=O)c2C1 (centres undefined), the pIC50 [1] was under 6.00.

CC(CCc1c[nH]c2ccc(F)cc12)N(CC1CC1)C1COc2c(F)ccc(C(N)=O)c2C1 (single isomer, unassigned; (+)) [listing 2 of 2 here] showed a pIC50 [1] of 6.79.

NC(=O)c1ccc(F)c2c1CC(N(CCCCn1ccc3cc(F)ccc31)C1CCC1)CO2 (centres undefined) gave a pIC50 [1] of under 6.00 and a pIC50 [2] of under 6.00.

N#Cc1ccc2[nH]cc(CCCN(C3CCC3)C3COc4c(F)ccc(C(N)=O)c4C3)c2c1 (single isomer, unassigned; (-)) showed an Activity (Rattus norvegicus) of 19%.

In the case of NC(=O)c1ccc(F)c2c1CC(N(CCCc1c[nH]c3c(F)cc(F)cc13)C1CCC1)CO2 (single isomer, unassigned; (-)), the pIC50 [1] was 7.15 and the pIC50 [2] was 6.69.

For O=C(NC1CCC1)c1ccc(F)c2c1CC(N(CCCc1c[nH]c3ccc(F)cc13)C1CCC1)CO2 (centres undefined), the pIC50 [1] was 7.15, the Activity (Rattus norvegicus) was 12% and the pKi [3] was 8.14.

In the case of NC(=O)c1cccc2c1CC(N(CCCc1c[nH]c3ccc(F)cc13)C1CCC1)CO2 (stereo in doubt; (+)-35e) [listing 2 of 2 here], the pIC50 [1] was 7.55.

Compound NC(=O)c1ccc(F)c2c1C[C@@H](N(CC1CC1)CC1CCc3[nH]c4ccc(F)cc4c3C1)CO2 (stereo in doubt; 59b) [listing 2 of 2 here] has an Activity (Rattus norvegicus) of 22%.

Work on NC(=O)c1ccc(F)c2c1CC(N(CCCc1c[nH]c3c(F)cc(F)cc13)C1CCC1)CO2 (single isomer, unassigned; (+)) [listing 2 of 2 here] yielded a pIC50 [1] of 6.65 and a pIC50 [2] of under 6.00.

Work on CCCN(CCCc1c[nH]c2ccc(F)cc12)[C@H]1COc2c(F)ccc(C(N)=O)c2C1 yielded a pIC50 [2] of 6.39.

For CCCN(CC1CCc2[nH]c3ccc(F)cc3c2C1)[C@H]1COc2c(F)ccc(C(N)=O)c2C1 (stereo in doubt; 58a) [listing 2 of 2 here], the pIC50 [1] was under 6.00, the pKi [3] was under 6.00 and the pIC50 [2] was under 6.00.

With CCCN(CCCc1c[nH]c2ccc(F)cc12)[C@@H]1COc2c(F)ccc(C(N)=O)c2C1 the Activity (Rattus norvegicus) was 46%.

NC(=O)c1ccc(F)c2c1C[C@@H](N(CCCc1c[nH]c3ccc(F)cc13)C1CCC1)CO2 was tested, and the Activity (Rattus norvegicus) was 21%.

Work on CCCN(CCCc1c[nH]c2ccc(F)cc12)[C@H]1COc2c(F)ccc(OC)c2C1 yielded a pIC50 [1] of 6.42 and an Activity (Rattus norvegicus) of 50%.

With NC(=O)c1ccc(F)c2c1C[C@@H](N(CC1CC1)CC1CCc3[nH]c4ccc(F)cc4c3C1)CO2 (stereo in doubt; 59a) [listing 2 of 2 here] the Activity (Rattus norvegicus) was 3%.

Work on CC(C)NC(=O)c1ccc(F)c2c1CC(N(CCCc1c[nH]c3ccc(F)cc13)C1CCC1)CO2 (centres undefined) yielded a pIC50 [1] of 7.35, an Activity (Rattus norvegicus) of 4% and a pKi [3] of 7.95. The pIC50 [2] was under 5.70.

For O=C(NCC1CC1)c1ccc(F)c2c1CC(N(CCCc1c[nH]c3ccc(F)cc13)C1CCC1)CO2 (centres undefined), the pIC50 [1] was 7.36, the Activity (Rattus norvegicus) was 31% and the pKi [3] was 8.16. It also gave a pIC50 [2] of under 6.00.

COc1cccc2c(CCCN(C3CCC3)C3COc4c(F)ccc(C(N)=O)c4C3)c[nH]c12 (centres undefined) was tested, and the pIC50 [1] was under 6.00, the Activity (Rattus norvegicus) was 15% and the pKi [3] was under 6.00.

Work on NC(=O)c1ccc(F)c2c1CC(N(CCCc1c[nH]c3ccc(F)cc13)C1CCC1)CO2 (centres undefined) yielded an Activity (Rattus norvegicus) of 16%.

Compound CCCN(CCCCn1ccc2cccc(F)c21)C1COc2c(F)ccc(C(N)=O)c2C1 (centres undefined) has a pIC50 [1] of 6.36 and an Activity (Rattus norvegicus) of 39%.

For NC(=O)c1ccc(F)c2c1CC(N(CCCCn1ccc3ccc(F)cc31)CC1CC1)CO2 (centres undefined), the pIC50 [1] was under 6.00 and the pKi [3] was 8.00.

NC(=O)c1ccc(F)c2c1CC(N(CCCCn1ccc3cc(F)ccc31)CC1CC1)CO2 (centres undefined) showed a pIC50 [1] of under 6.00.

With COC(=O)c1ccc(F)c2c1CC(N(CCCc1c[nH]c3ccc(F)cc13)C1CCC1)CO2 (centres undefined) the pIC50 [1] was 5.73.
